Laboratory results: PMC6037002, “Drug targeting to decrease cardiotoxicity – determination of the cytotoxic effect of GnRH-based conjugates containing doxorubicin, daunorubicin and methotrexate on human cardiomyocytes and endothelial cells” (Beilstein Journal of Organic Chemistry, 2018)
Like-named read-outs stand apart in the source and are kept apart here.

What was measured:
[1] = tested on: human umbilical vein endothelial cells (HUVEC); experiment: Impedimetric measurement (xCELLigence SP), delta slope, HUVEC; settings: for delta slope (DS), short-term / delta slope (DS), long-term: HUVEC, three parallels; for delta slope (DS), short-term: 0–2 h; for delta slope (DS), long-term: 0–72 h; for Cardiotoxicity, HUVEC: grade +++/++/+/0, key not given, summary of impedimetric cytotoxicity; for cytotoxic effect on HUVEC, result in words: long-term (0–72 h), 10^−8–10^−6 mol/L, impedimetry, one-way ANOVA
From the text: (§1) The main objective of the study reported here was to evaluate the in vitro cardiotoxic effects (as undesired side effects) of […] GnRH-III-based conjugates containing doxorubicin, daunorubicin and methotrexate on two essential target cells of cardiovascular diseases: vascular endothelial cells and cardiomyocytes. The rate of cytotoxicity (antitumor effect) vs cardiotoxicity (toxic effects on cardiomyocytes and vascular endothelium) is an important factor for efficient drug development for targeted tumor therapy with minimized side effects. The technique used in this work – impedimetry – is a dedicated one for real-time monitoring of cells to distinguish short-term (0–2 hours) and long-term (0–72 hours) effects elicited by the drug or carrier–drug conjugates. The basic theory of impedimetry is that proliferation/viability of cells is well detectable by monitoring of the electric impedance (Z) in an AC environment, due to the electric insulator character of intact surface membranes composed of the phospholipid bilayer. […] While cell physiological responses of short-term exposures result in characteristic changes of cell morphology (e.g., spreading), long-term effects characteristically influence in particular the proliferation of cells, and therefore the cytotoxic effects. The presented dimensionless values of delta slope (DS) measure the difference between the slope of the curve corresponding to the treatment and that of the control curve in impedimetric recordings, the negative signs refer to the relative values to the identical control.
(§2) Experimental part – Cellular samples
(§3) In the present study, GnRH conjugates containing anti-tumour drugs (e.g., daunorubicin, doxorubicin) were investigated in order to evaluate whether the conjugates exert a decrease cardiotoxic effect compared to that of the free drugs. The cardiac myocytes and the vascular endothelium cells are the most frequently detected target cells of antitumor compounds and they are employed in our study. Human umbilical vein endothelial cells (HUVEC; Promocell, Biomedica, Wien, Austria) were cultured in Endothelial Cell Growth Medium with Endothelial Cell Growth Supplement Mix (Promocell, Biomedica, Wien, Austria) and 100 µg/mL penicillin/streptomycin. Primary human cardiac myocytes (HCM; Promocell, Biomedica, Wien, Austria) were cultured in Myocyte Growth Medium (Promocell, Biomedica, Wien, Austria).
(§4) Impedimetric measurements
(§5) The xCELLigence SP system was used for impedimetric measurements. The bottom of the wells of a 96-well E-plate is installed with a golden electrode array that constitutes the adhesion surface. Adhering cells – acting as insulators – change the electric impedance measured on the electrodes. The measured impedance change is in direct correlation with the number of adhering cells and the extent of adhesion. The results of impedance change are given in the form of Cell Index (CI) calculated by the xCELLigence system according to the […]
(§6) where Zt is the measured impedance in a time point, Zb is the background impedance and F is an inbuilt factor (F = 15 at 10 kHz) depending on the frequency of the alternating current. The measurements took place in an incubator holding a 37 °C temperature and 5% carbon-dioxide […]
(§7) The experiments started with a measurement of baseline impedance for 1 hour. After that, the cells (10^4 cells/well) were added to the wells and allowed to adhere to the electrodes. When the adhering cells reached a balanced state in the wells, signified by the impedance curves […]
(§8) free drugs at 10−12 – 10−6 M and the conjugates at 10−8 – 10−6 M final concentrations were […]
(§9) added to the wells. The changes in impedance were measured for at least 72 hours. For each measurement three parallels were measured.
(§10) The evaluation of responses followed the previously described strategy: acute effects of compounds were evaluated as a characteristic morphology of the curves in the 0–2 hours

[2] = tested on: primary human cardiac myocytes (HCM); settings: for delta slope (DS), short-term / delta slope (DS), long-term: HCM, three parallels; for delta slope (DS), short-term: 0–2 h; for delta slope (DS), long-term: 0–72 h; for cytotoxic effect on HCM, result in words: long-term (0–72 h), 10^−8–10^−6 mol/L (free drugs 10^−12–10^−6 mol/L), impedimetry, one-way ANOVA; for Cardiotoxicity, HCM: grade +++/++/+/0, key not given, summary of impedimetric cytotoxicity
From the text: as §1, §2, §3, §4, §5, §6, §7, §8, §9, §10

[3] = tested on: HT-29 human colon adenocarcinoma cells; settings: MTT assay; cited from earlier work
From the text: (§11) Table 1 Comparative study of cytotoxic effects and cardiotoxicity elicited by GnRH-based antitumor compounds (1–15) and reference substances (AN-152, Dox, Dau, Mtx). IC50 values show antitumor cytotoxic characteristics of the conjugates in human breast cancer (MCF-7), human colorectal adenocarcinoma (HT-29) and human acute monocytic leukemia (MM6) derived cell lines as representative tumor cells.

[4] = tested on: human acute monocytic leukemia (MonoMac6) cells; settings: cited from earlier work
From the text: as §11

[5] = tested on: MCF-7 human breast adenocarcinoma cells; settings: MTT assay; cited from earlier work
From the text: as §11

Row | Substance | delta slope (DS), short-term ([1]; Table S3a, 10^-6 mol/L) | delta slope (DS), short-term ([1]; Table S3a, 10^-7 mol/L) | delta slope (DS), short-term ([1]; Table S3a, 10^-8 mol/L) | delta slope (DS), long-term ([1]; Table S3a, 10^-6 mol/L) | delta slope (DS), long-term ([1]; Table S3a, 10^-7 mol/L) | delta slope (DS), long-term ([1]; Table S3a, 10^-8 mol/L) | Cardiotoxicity, HUVEC [1] | cytotoxic effect on HUVEC, result in words [1] | delta slope (DS), short-term ([2]; Table S3b, 10^-6 mol/L) | delta slope (DS), short-term ([2]; Table S3b, 10^-7 mol/L) | delta slope (DS), short-term ([2]; Table S3b, 10^-8 mol/L) | delta slope (DS), long-term ([2]; Table S3b, 10^-6 mol/L) | delta slope (DS), long-term ([2]; Table S3b, 10^-7 mol/L) | delta slope (DS), long-term ([2]; Table S3b, 10^-8 mol/L) | cytotoxic effect on HCM, result in words [2] | IC50 [3] [µM] | IC50 [4] [µM] | IC50 [5] [µM] | Cardiotoxicity, HCM [2] | other results
1 | [^4Lys(Dau=Aoa)]-GnRH-III(Dau=Aoa) [conjugate 14] | 0.006 | -0.005 | 0.002 | -0.001 | -0.001 | 0.001 | 0 | completely lost the cytotoxic effect | -0.001 | -0.002 | 0.001 | -0.002 | -0.001 | -0.0011 | completely lost their cytotoxic effect | 6.8 ± 1 | 0.513 ± 0.04 | 2.9 ± 0.9 |  | 
2 | GnRH-III(Dau=Aoa) [conjugate 4] | -0.003 | -0.003 | 0.001 | -0.001 | -0.001 | -0.001 | 0 | completely lost the cytotoxic effect | 0.001 | -0.001 | -0.002 | -0.001 | -0.001 | -0.001 | completely lost their cytotoxic effect | 27.8 ± 4.2 | > 1 | 6.5 ± 1.8 | 0 | 
3 | GnRH-III(Dox-glut-GFLG) [conjugate 2] |  |  |  |  |  |  |  |  |  |  |  |  |  |  |  | > 100 | 0.089 ± 0.02 | > 100 |  | delta slope (DS), short-term ([1]; Table S2a, 10^-6 mol/L): 0.058; delta slope (DS), short-term ([1]; Table S2a, 10^-7 mol/L): 0.016; delta slope (DS), short-term ([1]; Table S2a, 10^-8 mol/L): -0.004; delta slope (DS), long-term ([1]; Table S2a, 10^-6 mol/L, listed as 2): -0.042; delta slope (DS), long-term ([1]; Table S2a, 10^-6 mol/L, listed as GnRH-III(Dox-glut-GFLG)): −0.042; delta slope (DS), long-term ([1]; Table S2a, 10^-7 mol/L, listed as 2): -0.017; delta slope (DS), long-term ([1]; Table S2a, 10^-7 mol/L, listed as GnRH-III(Dox-glut-GFLG)): −0.017; delta slope (DS), long-term ([1]; Table S2a, 10^-8 mol/L): -0.002; delta slope (DS), short-term ([2]; Table S2b, 10^-6 mol/L): 0.008; delta slope (DS), short-term ([2]; Table S2b, 10^-7 mol/L): 0.003; delta slope (DS), short-term ([2]; Table S2b, 10^-8 mol/L): 0.009; delta slope (DS), long-term ([2]; Table S2b, 10^-6 mol/L): −0.019; delta slope (DS), long-term ([2]; Table S2b, 10^-7 mol/L): −0.004; delta slope (DS), long-term ([2]; Table S2b, 10^-8 mol/L): 0.001
4 | [^4Lys(Mtx)]-GnRH-III(Dau=Aoa) [conjugate 15] |  |  |  |  |  |  | 0 | no significant cytotoxic effect |  |  |  |  |  |  | none of the two investigated mixed drug–GnRH-III conjugates (13 and 15) exerted any significant cytotoxic effect | 3.6 ± 1.5 | > 1 | 5.8 ± 1.1 | 0 | delta slope (DS), short-term ([1]; Table S5a, 10^-6 mol/L): 0.006; delta slope (DS), short-term ([1]; Table S5a, 10^-7 mol/L): -0.002; delta slope (DS), short-term ([1]; Table S5a, 10^-8 mol/L): 0.006; delta slope (DS), long-term ([1]; Table S5a, 10^-6 mol/L): -0.001; delta slope (DS), long-term ([1]; Table S5a, 10^-7 mol/L): -0.001; delta slope (DS), long-term ([1]; Table S5a, 10^-8 mol/L): 0.003; delta slope (DS), short-term ([2]; Table S5b, 10^-6 mol/L): -0.001; delta slope (DS), short-term ([2]; Table S5b, 10^-7 mol/L): -0.002; delta slope (DS), short-term ([2]; Table S5b, 10^-8 mol/L): -0.003; delta slope (DS), long-term ([2]; Table S5b, 10^-6 mol/L): -0.001; delta slope (DS), long-term ([2]; Table S5b, 10^-7 mol/L): 0.001; delta slope (DS), long-term ([2]; Table S5b, 10^-8 mol/L): -0.001
5 | GnRH-III(Dau=Aoa-YRRL) [conjugate 8] |  |  |  |  |  |  |  |  |  |  |  |  |  |  |  | 28.6 ± 5.5 | > 1 | 1.8 ± 0.5 |  | delta slope (DS), short-term ([1]; Table S4a, 10^-6 mol/L): 0.003; delta slope (DS), short-term ([1]; Table S4a, 10^-7 mol/L): -0.004; delta slope (DS), short-term ([1]; Table S4a, 10^-8 mol/L): -0.010; delta slope (DS), long-term ([1]; Table S4a, 10^-6 mol/L): −0.018; delta slope (DS), long-term ([1]; Table S4a, 10^-7 mol/L): -0.002; delta slope (DS), long-term ([1]; Table S4a, 10^-8 mol/L): -0.007; delta slope (DS), short-term ([2]; Table S4b, 10^-6 mol/L): -0.002; delta slope (DS), short-term ([2]; Table S4b, 10^-7 mol/L): -0.001; delta slope (DS), short-term ([2]; Table S4b, 10^-8 mol/L): -0.003; delta slope (DS), long-term ([2]; Table S4b, 10^-6 mol/L): −0.004; delta slope (DS), long-term ([2]; Table S4b, 10^-7 mol/L): -0.002; delta slope (DS), long-term ([2]; Table S4b, 10^-8 mol/L): -0.001
